Data from the supplement of paper PMC8633005.

Tests used:
Assay in all cases: drug sensitivity score (DSS) (DSS (unitless, 0-50 scale)); higher = more sensitive (stronger viability inhibition); extreme values may be limits of the assay
Conditions in all cases: 72 h; culture: 2D
[1] = test system: WM852
In short: (§1)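 Melanoma cell lines and patient-derived melanoma cultures at 1000–1500 cells per well were exposed in 2D, in 384-well plates, to a 527-compound oncology library at five concentrations spanning a 10,000-fold range for 72 h at 37 °C. CellTiter-Glo luminescence then measured viability. From dose-response curves fitted in the in-house Breeze software, a drug sensitivity score, a modified area-under-curve measure, was obtained.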

[2] = test system: FM-MEL-3
In short: as §1

[3] = test system: Bowes
In short: as §1

[4] = test system: FM-MEL-6
In short: as §1

[5] = test system: SK-MEL-28
In short: as §1

[6] = test system: SK-MEL-2
In short: as §1

[7] = test system: FM-MEL-2
In short: as §1

[8] = test system: WM165
In short: as §1

## CCN(CC)CCN(Cc1ccc(-c2ccc(C(F)(F)F)cc2)cc1)C(=O)Cn1c(SCc2ccc(F)cc2)nc(=O)c2c1CCC2 [Darapladib]
[1]
  drug sensitivity score: 0
[2]
  drug sensitivity score: 0
[3]
  drug sensitivity score: 0
[4]
  drug sensitivity score: 0.4
[5]
  drug sensitivity score: 0.4
[6]
  drug sensitivity score: 0.2
[7]
  drug sensitivity score: 0.8
[8]
  drug sensitivity score: 0

## Cc1nc(Nc2ncc(C(=O)Nc3c(C)cccc3Cl)s2)cc(N2CCN(CCO)CC2)n1 [Dasatinib]
[1]
  drug sensitivity score: 0.1
[2]
  drug sensitivity score: 0
[3]
  drug sensitivity score: 1.9
[4]
  drug sensitivity score: 0
[5]
  drug sensitivity score: 3.4
[6]
  drug sensitivity score: 0
[7]
  drug sensitivity score: 0
[8]
  drug sensitivity score: 5.3

## COc1cccc2c1C(=O)c1c(O)c3c(c(O)c1C2=O)C[C@@](O)(C(C)=O)C[C@@H]3O[C@H]1C[C@H](N)[C@H](O)[C@H](C)O1 [Daunorubicin]
[1]
  drug sensitivity score: 4.6
[2]
  drug sensitivity score: 8.3
[3]
  drug sensitivity score: 4.5
[4]
  drug sensitivity score: 7.4
[5]
  drug sensitivity score: 7.2
[6]
  drug sensitivity score: 4.7
[7]
  drug sensitivity score: 6.8
[8]
  drug sensitivity score: 13.4

## CC[C@@](C)(Nc1ccnc(-c2c[nH]c3ncccc23)n1)C(=O)NCC(F)(F)F [Decernotinib]
[1]
  drug sensitivity score: 0
[2]
  drug sensitivity score: 0
[3]
  drug sensitivity score: 0
[4]
  drug sensitivity score: 0
[5]
  drug sensitivity score: 0.3
[6]
  drug sensitivity score: 0
[7]
  drug sensitivity score: 0.2
[8]
  drug sensitivity score: 0

## Nc1ncn([C@H]2C[C@H](O)[C@@H](CO)O2)c(=O)n1 [Decitabine]
[1]
  drug sensitivity score: 0
[2]
  drug sensitivity score: 0
[3]
  drug sensitivity score: 0
[4]
  drug sensitivity score: 3.4
[5]
  drug sensitivity score: 0
[6]
  drug sensitivity score: 0
[7]
  drug sensitivity score: 0
[8]
  drug sensitivity score: 0.7

## CC(=O)N(O)CCCCCNC(=O)CCC(=O)N(O)CCCCCNC(=O)CCC(=O)N(O)CCCCCN [Deferoxamine]
[1]
  drug sensitivity score: 4.9
[2]
  drug sensitivity score: 0
[3]
  drug sensitivity score: 2.9
[4]
  drug sensitivity score: 1.8
[5]
  drug sensitivity score: 0.9
[6]
  drug sensitivity score: 0
[7]
  drug sensitivity score: 0.6
[8]
  drug sensitivity score: 3.8

## C[C@@H]1C[C@H]2[C@@H]3CCC4=CC(=O)C=C[C@]4(C)[C@@]3(F)[C@@H](O)C[C@]2(C)[C@@]1(O)C(=O)CO [Dexamethasone]
[1]
  drug sensitivity score: 0
[2]
  drug sensitivity score: 0
[3]
  drug sensitivity score: 0
[4]
  drug sensitivity score: 0
[5]
  drug sensitivity score: 0
[6]
  drug sensitivity score: 0
[7]
  drug sensitivity score: 0
[8]
  drug sensitivity score: 0

## C[C@H]1O[C@@H](O[C@H]2[C@@H](O)C[C@H](O[C@H]3[C@@H](O)C[C@H](O[C@H]4CC[C@@]5(C)[C@H](CC[C@@H]6[C@@H]5C[C@@H](O)[C@]5(C)[C@@H](C7=CC(=O)OC7)CC[C@]65O)C4)O[C@@H]3C)O[C@@H]2C)C[C@H](O)[C@@H]1O [Digoxin]
[1]
  drug sensitivity score: 10.4
[2]
  drug sensitivity score: 13.3
[3]
  drug sensitivity score: 12.9
[4]
  drug sensitivity score: 9.7
[5]
  drug sensitivity score: 6.6
[6]
  drug sensitivity score: 5.9
[7]
  drug sensitivity score: 3.3
[8]
  drug sensitivity score: 10.6

## CCc1cnn2c(NCc3ccc[n+]([O-])c3)cc(N3CCCC[C@H]3CCO)nc12 [Dinaciclib]
[1]
  drug sensitivity score: 20
[2]
  drug sensitivity score: 18.5
[3]
  drug sensitivity score: 30.7
[4]
  drug sensitivity score: 21.7
[5]
  drug sensitivity score: 20.2
[6]
  drug sensitivity score: 21.2
[7]
  drug sensitivity score: 13.1
[8]
  drug sensitivity score: 22.4

## CC(=O)O[C@@]12CO[C@@H]1C[C@H](O)[C@@]1(C)C(=O)[C@H](O)C3=C(C)[C@@H](OC(=O)[C@H](O)[C@@H](NC(=O)OC(C)(C)C)c4ccccc4)C[C@@](O)([C@@H](OC(=O)c4ccccc4)[C@H]21)C3(C)C [Docetaxel]
[1]
  drug sensitivity score: 20.7
[2]
  drug sensitivity score: 10.9
[3]
  drug sensitivity score: 28.8
[4]
  drug sensitivity score: 14.7
[5]
  drug sensitivity score: 12.7
[6]
  drug sensitivity score: 16.4
[7]
  drug sensitivity score: 6.5
[8]
  drug sensitivity score: 25.1

## Cc1ccc(-n2nc(C(C)(C)C)cc2NC(=O)Nc2ccc(OCCN3CCOCC3)c3ccccc23)cc1 [Doramapimod]
[1]
  drug sensitivity score: 0
[2]
  drug sensitivity score: 1.7
[3]
  drug sensitivity score: 0
[4]
  drug sensitivity score: 0.8
[5]
  drug sensitivity score: 0
[6]
  drug sensitivity score: 0
[7]
  drug sensitivity score: 1.4
[8]
  drug sensitivity score: 3.4

## CN1CCN(c2ccc3nc(-c4c(N)c5c(F)cccc5[nH]c4=O)[nH]c3c2)CC1 [Dovitinib]
[1]
  drug sensitivity score: 0
[2]
  drug sensitivity score: 0
[3]
  drug sensitivity score: 0.5
[4]
  drug sensitivity score: 0
[5]
  drug sensitivity score: 0
[6]
  drug sensitivity score: 0
[7]
  drug sensitivity score: 0
[8]
  drug sensitivity score: 0.3

## COc1cccc2c1C(=O)c1c(O)c3c(c(O)c1C2=O)C[C@@](O)(C(=O)CO)C[C@@H]3O[C@H]1C[C@H](N)[C@H](O)[C@H](C)O1 [Doxorubicin]
[1]
  drug sensitivity score: 4.8
[2]
  drug sensitivity score: 6.8
[3]
  drug sensitivity score: 4.2
[4]
  drug sensitivity score: 7.8
[5]
  drug sensitivity score: 7.8
[6]
  drug sensitivity score: 4.9
[7]
  drug sensitivity score: 6.7
[8]
  drug sensitivity score: 15.1

## C[C@H](Nc1ncnc2nc[nH]c12)c1cc2cccc(Cl)c2c(=O)n1-c1ccccc1 [Duvelisib]
[1]
  drug sensitivity score: 0
[2]
  drug sensitivity score: 0
[3]
  drug sensitivity score: 0
[4]
  drug sensitivity score: 0
[5]
  drug sensitivity score: 1.3
[6]
  drug sensitivity score: 0
[7]
  drug sensitivity score: 2.3
[8]
  drug sensitivity score: 0

## Cc1ccc(NS(=O)(=O)c2cccc(C#N)c2)c2[nH]cc(C#N)c12 [E7820]
[1]
  drug sensitivity score: 0
[2]
  drug sensitivity score: 5.5
[3]
  drug sensitivity score: 0
[4]
  drug sensitivity score: 0.7
[5]
  drug sensitivity score: 0
[6]
  drug sensitivity score: 0
[7]
  drug sensitivity score: 1.9
[8]
  drug sensitivity score: 5.3

## Cc1cc(Nc2cc(N3CCN(C)CC3)nc(/C=C/c3ccccc3)n2)n[nH]1 [ENMD-2076]
[1]
  drug sensitivity score: 7.5
[2]
  drug sensitivity score: 7.8
[3]
  drug sensitivity score: 11.1
[4]
  drug sensitivity score: 6.4
[5]
  drug sensitivity score: 7.9
[6]
  drug sensitivity score: 8.9
[7]
  drug sensitivity score: 7.6
[8]
  drug sensitivity score: 12.6

## Cc1cc(C)c(CNC(=O)c2cc(-c3ccc(CN4CCOCC4)cc3)cc3c2cnn3C2CCCC2)c(=O)[nH]1 [EPZ-5687]
[1]
  drug sensitivity score: 0
[2]
  drug sensitivity score: 2.8
[3]
  drug sensitivity score: 2.6
[4]
  drug sensitivity score: 0.5
[5]
  drug sensitivity score: 0
[6]
  drug sensitivity score: 0
[7]
  drug sensitivity score: 0
[8]
  drug sensitivity score: 0

## NC(=O)/C(=C/n1cnc(-c2cc(C(F)(F)F)cc(C(F)(F)F)c2)n1)c1cncnc1 [Eltanexor]
[1]
  drug sensitivity score: 11.2
[2]
  drug sensitivity score: 18.4
[3]
  drug sensitivity score: 14.8
[4]
  drug sensitivity score: 11.8
[5]
  drug sensitivity score: 14
[6]
  drug sensitivity score: 15.2
[7]
  drug sensitivity score: 9.5
[8]
  drug sensitivity score: 19.3
